Several values for one entry are separate records, joined by “and”; a condition that tells them apart may be missing. Identical values can stand only once.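 Values below derive from 48-hour exposures of cells grown in 96-well plates, with endpoints linearly interpolated between the two concentrations bracketing the appropriate inhibition level. GI50 is the concentration that inhibits growth by half. TGI marks complete inhibition of growth.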
Legend:
Test in all cases: NCI anticancer screen, dose series, 48 h
NCI-H226 lung = tested on: NCI-H226 lung
UACC-62 melanoma = tested on: UACC-62 melanoma
OVCAR-5 ovarian = tested on: OVCAR-5 ovarian
DLD-1 colon = tested on: DLD-1 colon
UACC-257 melanoma = tested on: UACC-257 melanoma
SNB-75 CNS = tested on: SNB-75 CNS
HT29 colon = tested on: HT29 colon
HOP-92 NSCLC = tested on: HOP-92 NSCLC
M19-MEL melanoma = tested on: M19-MEL melanoma
SK-MEL-5 melanoma = tested on: SK-MEL-5 melanoma
MOLT-4 leukemia = tested on: MOLT-4 leukemia
KM12 colon = tested on: KM12 colon
SN12C renal = tested on: SN12C renal
SK-MEL-2 melanoma = tested on: SK-MEL-2 melanoma
SW-620 colon = tested on: SW-620 colon
OVCAR-3 ovarian = tested on: OVCAR-3 ovarian
RPMI-8226 leukemia = tested on: RPMI-8226 leukemia
CAKI-1 renal = tested on: CAKI-1 renal
HCT-15 colon = tested on: HCT-15 colon
IGROV1 ovarian = tested on: IGROV1 ovarian
HOP-18 NSCLC = tested on: HOP-18 NSCLC
COLO 205 colon = tested on: COLO 205 colon
A498 renal = tested on: A498 renal
MALME-3M melanoma = tested on: MALME-3M melanoma
DMS 273 small cell lung = tested on: DMS 273 small cell lung
UO-31 renal = tested on: UO-31 renal
786-0 renal = tested on: 786-0 renal
EKVX NSCLC = tested on: EKVX NSCLC
SF-295 CNS = tested on: SF-295 CNS
K-562 leukemia = tested on: K-562 leukemia
HL-60(TB) leukemia = tested on: HL-60(TB) leukemia
LOX IMVI melanoma = tested on: LOX IMVI melanoma
NCI-H522 lung = tested on: NCI-H522 lung
A549 NSCLC = tested on: A549 NSCLC
SF-539 CNS = tested on: SF-539 CNS
ACHN renal = tested on: ACHN renal
KM20L2 colon = tested on: KM20L2 colon
SNB-19 CNS = tested on: SNB-19 CNS
LXFL 529 NSCLC = tested on: LXFL 529 NSCLC
HCC-2998 colon = tested on: HCC-2998 colon
DMS 114 small cell lung = tested on: DMS 114 small cell lung
HOP-62 NSCLC = tested on: HOP-62 NSCLC
SNB-78 CNS = tested on: SNB-78 CNS
RXF 393 renal = tested on: RXF 393 renal
OVCAR-8 ovarian = tested on: OVCAR-8 ovarian
NCI-H460 lung = tested on: NCI-H460 lung
SF-268 CNS = tested on: SF-268 CNS
HCT-116 colon = tested on: HCT-116 colon
SK-OV-3 ovarian = tested on: SK-OV-3 ovarian
M14 melanoma = tested on: M14 melanoma
TK-10 renal = tested on: TK-10 renal
U251 CNS = tested on: U251 CNS
XF 498 CNS = tested on: XF 498 CNS
CCRF-CEM leukemia = tested on: CCRF-CEM leukemia
OVCAR-4 ovarian = tested on: OVCAR-4 ovarian
SR leukemia = tested on: SR leukemia
NCI-H23 lung = tested on: NCI-H23 lung

Structure (SMILES): COc1cc2c(c(OC)c1OC)-c1ccc(SC)c(=O)cc1[C@@H](NCc1ccc([N+](=O)[O-])cc1)CC2
- TGI (NCI-H226 lung): 0.0134 µM
- TGI (UACC-62 melanoma): 51.2 µM
- GI50 (OVCAR-5 ovarian): > 100 µM
- TGI (OVCAR-5 ovarian): > 100 µM
- TGI (DLD-1 colon): > 100 µM
- GI50 (UACC-257 melanoma): 0.0771 µM
- TGI (UACC-257 melanoma): > 100 µM
- TGI (SNB-75 CNS): > 100 µM
- TGI (HT29 colon): 0.011 µM
- TGI (HOP-92 NSCLC): > 100 µM
- TGI (M19-MEL melanoma): > 100 µM
- TGI (SK-MEL-5 melanoma): 17.5 µM
- TGI (MOLT-4 leukemia): > 100 µM
- TGI (KM12 colon): 0.0341 µM
- TGI (SN12C renal): > 100 µM
- TGI (SK-MEL-2 melanoma): 19 µM
- TGI (SW-620 colon): > 100 µM
- TGI (OVCAR-3 ovarian): 0.00965 µM
- TGI (RPMI-8226 leukemia): > 100 µM
- TGI (CAKI-1 renal): > 100 µM
- TGI (HCT-15 colon): 0.0324 µM
- TGI (IGROV1 ovarian): > 100 µM
- GI50 (HOP-18 NSCLC): > 100 µM
- TGI (HOP-18 NSCLC): > 100 µM
- TGI (COLO 205 colon): 0.0145 µM
- TGI (A498 renal): 0.0531 µM
- TGI (MALME-3M melanoma): > 100 µM
- TGI (DMS 273 small cell lung): 1.06 µM
- TGI (UO-31 renal): > 100 µM
- TGI (786-0 renal): > 100 µM
- TGI (EKVX NSCLC): > 100 µM
- TGI (SF-295 CNS): > 100 µM
- TGI (K-562 leukemia): 37.5 µM
- TGI (HL-60(TB) leukemia): 1.49 µM
- TGI (LOX IMVI melanoma): > 100 µM
- TGI (NCI-H522 lung): 0.0119 µM
- TGI (A549 NSCLC): > 100 µM
- TGI (SF-539 CNS): 0.00672 µM and 0.0112 µM
- TGI (ACHN renal): > 100 µM
- TGI (KM20L2 colon): 0.00435 µM
- TGI (SNB-19 CNS): > 100 µM
- TGI (LXFL 529 NSCLC): > 100 µM
- TGI (HCC-2998 colon): 0.0105 µM
- TGI (DMS 114 small cell lung): 0.00735 µM
- GI50 (HOP-62 NSCLC): 0.429 µM
- TGI (HOP-62 NSCLC): > 100 µM
- TGI (SNB-78 CNS): > 100 µM
- TGI (RXF 393 renal): 0.00781 µM

Structure (SMILES): CC1OC(=O)C(O)=C1O (stereo unspecified)
- TGI (NCI-H226 lung): > 100 µM
- TGI (UACC-62 melanoma): > 100 µM
- TGI (OVCAR-8 ovarian): > 100 µM
- TGI (OVCAR-5 ovarian): > 100 µM
- TGI (UACC-257 melanoma): > 100 µM
- TGI (NCI-H460 lung): > 100 µM
- TGI (SNB-75 CNS): > 100 µM
- TGI (SF-268 CNS): > 100 µM
- TGI (HT29 colon): > 100 µM
- TGI (HOP-92 NSCLC): > 100 µM
- TGI (M19-MEL melanoma): > 100 µM
- TGI (SK-MEL-5 melanoma): > 100 µM
- TGI (MOLT-4 leukemia): > 100 µM
- TGI (KM12 colon): > 100 µM
- TGI (SN12C renal): > 100 µM
- TGI (HCT-116 colon): > 100 µM
- TGI (SK-MEL-2 melanoma): > 100 µM
- TGI (SK-OV-3 ovarian): > 100 µM
- TGI (SW-620 colon): > 100 µM
- TGI (OVCAR-3 ovarian): > 100 µM
- TGI (RPMI-8226 leukemia): > 100 µM
- TGI (CAKI-1 renal): > 100 µM
- TGI (HCT-15 colon): > 100 µM
- TGI (IGROV1 ovarian): > 100 µM
- TGI (M14 melanoma): > 100 µM
- TGI (TK-10 renal): > 100 µM
- TGI (HOP-18 NSCLC): > 100 µM
- TGI (COLO 205 colon): > 100 µM
- TGI (U251 CNS): > 100 µM
- TGI (MALME-3M melanoma): > 100 µM
- TGI (DMS 273 small cell lung): > 100 µM
- TGI (UO-31 renal): > 100 µM
- TGI (786-0 renal): > 100 µM
- TGI (EKVX NSCLC): > 100 µM
- TGI (SF-295 CNS): > 100 µM
- TGI (XF 498 CNS): > 100 µM
- TGI (K-562 leukemia): > 100 µM
- TGI (CCRF-CEM leukemia): > 100 µM
- TGI (LOX IMVI melanoma): > 100 µM
- TGI (NCI-H522 lung): > 100 µM
- TGI (A549 NSCLC): > 100 µM
- TGI (SF-539 CNS): > 100 µM
- TGI (ACHN renal): > 100 µM
- TGI (OVCAR-4 ovarian): > 100 µM
- TGI (KM20L2 colon): > 100 µM
- TGI (SNB-19 CNS): > 100 µM
- TGI (LXFL 529 NSCLC): > 100 µM
- TGI (HCC-2998 colon): > 100 µM
- TGI (HOP-62 NSCLC): > 100 µM
- TGI (SR leukemia): > 100 µM
- TGI (SNB-78 CNS): > 100 µM
- TGI (NCI-H23 lung): > 100 µM
- TGI (RXF 393 renal): > 100 µM
